# Source: US6506431B2, “Spore germination inhibitor and food containing the same” (Ajinomoto Co., Inc., priority 2000, dated 2003)
# Key:
# Bacillus subtilis spores [1] = assay: Spore germination-inhibitory effects by CPC, AGFK germinator (Example 2); format: cell-based; details: 1 mg/ml CPC, 37° C., 2 hours
# Experimental: The germination-inhibitory activity was measured as follows: ½ volume of a sample was allowed to react with ½ volume of spore suspension (0.2 mg/ml Bacillus subtilis spores, 40 mM Tris HCl, pH 7.5) containing germinator (20 mM L-asparagine, 2 mM D-glucose, 2 mM D-fructose, 20 mM KCl) at 37° C. The spores gradually darkened with germination increase, and turbidity of the suspension decreased. Thereupon, the turbidity of the spore suspension was measured at 600 nm using a spectrophotometer, and a germination rate was determined by calculating the rate of decrease of turbidity. In order to examine the germination-inhibitory effects of CPC, the following tests were conducted. Spore suspension containing 0.1 mg/ml Bacillus subtilis spores, 20 mM Tris.HCl, pH 7.5. Spore suspension as above further containing 10 mM L-asparagine, 1 mM D-glucose, 1 mM D-fructose and 10 mM KCl as germinator. Spore suspension as above containing the germination (Test Group 2) and further containing 1 mg/ml CPC. The above spore suspensions were allowed to react at 37° C. for 2 hours, and spore germination conditions were examined. The turbidity of each test group after 2 hours was measured at 600 nm using a spectrophotometer. In the test group 2, the turbidity of the spore suspension was decreased remarkably compared with the start of the reaction, and sufficient germination of spores was found. […]
# [2] = Solubility of CPC (properties); format: physicochemical
# Bacillus subtilis spores [3] = assay: Germination inhibition by combination of CPC and D-alanine in sufficient nutrients (Example 3); format: cell-based; details: 1 mg/ml each; for variation of the turbidity of the spore suspension at 600 nm (germination): 25 g/l Bacto-LB broth plus AGFK germinator, 37° C., 2 hours; for inhibition at 1000 µg/mL: Bacillus subtilis, 0.5 h, LB broth plus AGFK, variation of OD600 for 30 minutes, test group 1 = 100%, test group 2 = 0%, read-out: germination inhibition rate
# Experimental: Thereupon, in order to examine germination-inhibitory effects by the combination of CPC and D-alanine which is a known germination-inhibitory substance, the following test groups were prepared. Spore suspension containing 0.1 mg/ml Bacillus subtilis spores, 20 mM Tris.HCl, pH 7.5. Spore suspension containing 0.1 mg/ml Bacillus subtilis, 25 g/l Bacto-LB broth, Miller (DIFCO) as sufficient nutrients, and 10 mM L-asparagine, 1 mM D-glucose, 1 mM D-fructose and 10 mM KCl (AGFK system) as germinator. Spore suspension as above containing the sufficient nutrients (Test Group 2) and further containing 1 mg/ml CPC. Spore suspension as above containing the sufficient nutrients (Test Group 2) and further containing 1 mg/ml D-alanine. Spore suspension as above containing the sufficient nutrients (Test Group 2) and further containing 1 mg/ml CPC and 1 mg/ml D-alanine. The above spore suspensions were allowed to react at 37° C. for 2 hours, and spore germination conditions were examined. The variation of the turbidity of each test group was measured through the above reaction at 600 nm using a spectrophotometer. […] After 2 hours, the turbidity became the same turbidity as the initial one, and growth subsequest to the germination (vegetative growth) was observed. […] Each inhibition rate was calculated based on the variation of OD600 value for 30 minutes from the start of measurement wherein the germination inhibition rate in the test group 1 is assigned 100% and that in the test group 2 is assigned 0%.
SMILES,spore germination observed by phase-contrast microscope (Bacillus subtilis spores [1]; AGFK germinator),"spore germination by turbidity of the spore suspension at 600 nm (Bacillus subtilis spores [1]; germinator 10 mM L-asparagine, 1 mM D-glucose, 1 mM D-fructose, 10 mM KCl)",solubility [2],variation of the turbidity of the spore suspension at 600 nm (germination) (Bacillus subtilis spores [3]),inhibition at 1000 µg/mL (Bacillus subtilis spores [3]) [%]
"NC(=O)c1cccc(C(=O)O)n1 [CPC, 6-carbamoyl-2-pyridine carboxylic acid]",germination of spores was not recognized,germination was not observed,"Soluble in water, particularly alkaline water, and organic solvent, such as pyridine and DMSO",growth subsequent to the germination was observed,9
"C[C@@H](N)C(=O)O [D-alanine, reference compound]",,,,growth subsequent to the germination was observed,16
